Measured values published in ChEMBL document CHEMBL5726682, “Autotaxin inhibitor compounds” (2017).

Target: Autotaxin (Homo sapiens, UniProt Q13822)
Assay: Inhibition Assay: ATX activity is assayed in concentrated conditioned media from Hep3B human hepatocellular carcinoma cells by measuring the amount of choline released from the substrate, lysophosphatidylcholine (LPC) as it is cleaved to LPA. Conditioned media is collected from confluent Hep3B cells and concentrated 20-fold using Centriprep-30 filter devices (Millipore). To assay for autotaxin inhibition, 10-20 μL of the concentrated conditioned media is incubated with 2.5 μL of a test compound in DMSO and 72.5-82.5 μL lyso-PLD buffer (100 mM Tris pH 9, 500 mM NaCl, 5 mM MgCl2, 5 mM CaCl2, 0.05% Triton X-100 in the presence or absence of 0.2% fatty-acid-free human serum albumin) for 15 min at 37° C. After the 15 min incubation, 5 uL of 2 mM LPC (14:0; Avanti Polar Lipids Cat#855575C) diluted in lyso-PLD buffer is added for a final concentration of 100 uM and the incubation continues for 1.5-3 hours at 37° C. 100 μL of a color mix containing 4.5 mM 4-aminoantipyrine, 2.7 mM N-ethyl-N-(2-hydroxy-3-sulfopropyl)-m-toluidine, 21 units/ml horseradish peroxidase and 3 units/mL choline oxidase in 50 mM Tris, pH 8, 4.5 mM MgCl2 is added and the incubation continued for 15 minutes at room temperature before reading the absorbance at 555 nm.

SMILES | IC50
Cc1c(Sc2cccc(C(=O)O)c2)c2ccc(Cl)c(F)c2n1CC(=O)N1CC2(CCN(C)CC2)c2ccccc21 | < 500 nM
O=C(O)c1cccc(Sc2c(C3CC3)n(CC(=O)N3CC4(CCC4)c4ccccc43)c3c(F)c(Cl)ccc23)c1F | < 500 nM
O=C(O)c1cccc(Sc2c(C3CC3)n(CC(=O)N3CC4(CC4)c4ccccc43)c3c(F)c(Cl)ccc23)c1F | < 500 nM
O=C(O)c1cccc(Sc2c(C3CC3)n(CC(=O)N3CCC(O)(C(F)(F)F)C3)c3c(F)c(Cl)ccc23)c1F (centres undefined) | < 500 nM
O=C(O)c1cccc(Sc2c(C3CC3)n(CCN3CC4(CCC4)c4ccccc43)c3c(F)c(Cl)ccc23)c1F | < 500 nM
O=C(O)c1cccc(Sc2c(Cl)n(CC(=O)N3CC4(CC4)c4ccccc43)c3c(F)c(Cl)ccc23)c1F | < 500 nM
Cc1c(Sc2cccc(C(=O)O)n2)c2ccc(Cl)c(F)c2n1CC(=O)N1CCC2(CC1)CNC(=O)O2 | < 500 nM
O=C(O)c1cccc(Sc2c(Cl)n(CC(=O)N3CCC(O)(C(F)(F)F)C3)c3c(F)c(Cl)ccc23)c1F (centres undefined) | < 500 nM
Cc1c(Sc2cccc(C(=O)O)c2)c2ccc(Cl)cc2n1C(=O)NCc1ccccc1 | > 3000 nM

Continued, values first:

IC50 | SMILES
< 500 nM | Cc1c(Sc2cccc(C(=O)O)c2)c2ccc(Cl)c(F)c2n1CC(=O)N1CCCCC1CCn1cccn1 (centres undefined)
< 500 nM | Cc1c(Sc2cccc(C(=O)O)c2)c2ccc(Cl)c(F)c2n1CC(=O)N1CC2(CCN(C)CC2)C1
< 500 nM | Cc1c(Sc2cccc(C(=O)O)n2)c2ccc(Cl)c(F)c2n1CC(=O)N1CCC(O)(C(F)(F)F)C1 (centres undefined)
< 500 nM | Cc1c(Sc2cccc(C(=O)O)c2)c2ccc(Cl)c(F)c2n1CC(=O)N1CCC(C#N)C1 (centres undefined)
< 500 nM | Cc1c(Sc2cccc(C(=O)O)c2)c2ccc(Cl)c(F)c2n1CC(=O)N1CCC2(COC2)C1
< 500 nM | Cc1c(Sc2cccc(C(=O)O)c2)c2ccc(Cl)c(F)c2n1CC(=O)N1CCc2ccc(C(F)(F)F)cc21
< 500 nM | Cc1c(Sc2cccc(C(=O)O)c2)c2ccc(Cl)c(F)c2n1CCC(=O)Nc1ccccc1
< 500 nM | Cc1c(Sc2cccc(C(=O)O)c2)c2ccc(Cl)c(F)c2n1CC(=O)N1CCC(c2cnn(C)c2)CC1
< 500 nM | Cc1c(Sc2cccc(C(=O)O)c2F)c2ccc(Cl)c(F)c2n1CC(=O)N1CCC(C(C)(C)O)C1 (centres undefined)
< 500 nM | Cc1c(Sc2cccc(C(=O)O)c2)c2ccc(Cl)c(F)c2n1CC(=O)N1CCc2c(F)cccc21
